Tests used:
[1] = In situ brain perfusion, single time-point method
Description: Animals used in this study were Sprague-Dawley rats (approximate weight 250-300 grams), obtained from Hilltop Lab Animals, Scottdale, Pa. Upon arrival, the rats were assigned randomly to treatment groups and acclimated for at least 24 hours. The animals were housed two per cage and identified by cage labels. A single room was used for this study. The animals were supplied with water and a commercial rodent diet ad libitum. On the day of the experiment, each rat was anesthetized intraperitoneally with Ketamine HCl/Xylazine HCl solution prior to being implanted with a cannula into the left carotid artery. Branch arteries were […], and the cardiac supply was cut off prior to brain perfusion.
Perfusion was performed using the single time-point method. […] Following 30 seconds of perfusion, the pump was stopped, and the brain was removed from the skull immediately. The brain was cut longitudinally in […]. Each left cerebral hemisphere was placed into a chilled tube, frozen on dry ice, and stored frozen at −60° C. to −80° C. until analyzed. […] Test articles were perfused at concentrations of 50 μM. The outline of the experimental treatments and the target and measured concentrations of the test articles and control compounds in the perfusate are presented in Table 3.
The left brain hemisphere from each rat was thawed and weighed. Methanol (20% aqueous) was added to each left brain hemisphere at approximately 4 mL per 1 g of brain tissue, and the mixture was homogenized using sonication with a VirSonic Ultrasonic Cell Disruptor 100 (VirTis). The test articles and two reference compounds were analyzed in the resulting homogenate by using LC/MS/MS.
The unidirectional brain transfer constants Kin (mL/g/min) were determined for the test articles and the high permeability reference, antipyrine, using the following equation for the single-point perfusion assay: […]
where: Cbr/Cpf is the apparent brain distribution volume (mL/g of brain tissue); Cbr is the concentration of drug in the brain tissue (pmol of drug per g of brain tissue); Cpf is the drug concentration in the perfusion fluid (pmol/mL of perfusate); and t is the net perfusion time (minutes).
Graphic representation and statistical analyses of the data were performed using GraphPad Prism software.

[2] = Permeation across cultured human respiratory epithelium (EpiAir tissue), apical-to-basolateral Papp; conditions: human, pH 7.4, Papp
Source text: (§1) An in vitro model of MatTek EpiAir® tissue was used for the permeability assessment of the test articles and control compounds. The EpiAir® culture consists of cells that have been cultured to form a pseudo-stratified, highly differentiated model closely resembling the epithelial tissue of the human respiratory tract. The histological cross-sections of the cultured tissue reveal a pseudo-stratified mucociliary phenotype.
(§2) EpiAir® tissues plated in 12 well plates were pre-equilibrated for the assay by culturing them for 24 hours at 37° C. with 5% CO2 in a humidified incubator. On the day of the assay, the cultures were washed two times with Dulbeccos' Phosphate Buffered Saline (DPBS buffer) at pH 7.4, and then dosed with donor and receiver buffer applied to the apical and basolateral surfaces of the culture, respectively. The receiver buffer consisted of DPBS, at pH 7.4. The donor solution consisted of DPBS buffer containing the appropriate compounds as specified in Table 1. All treatments were performed in triplicate. The receiver buffer was sampled at 15, 30, 60, and 120 minutes, and the donor buffer was sampled at 120 minutes.
(§3) The Lucifer Yellow concentration in the receiver samples was measured using a FluoStar fluorescence plate reader (BMG Laboratories, Durham, N.C.).
(§4) The apparent permeability coefficient, Papp, was calculated as follows: […]
(§5) where: dCr/dt is the slope of the cumulative concentration in the receiver compartment versus time; Vr is the volume of the receiver compartment; A is the surface area of epithelium available for permeation; and Co is the dosing solution concentration.

[3] = system: cultured human respiratory epithelium; experiment: in vitro
Source text: as §1, §2, §3, §4, §5

[4] = Table 4 Treatment 1: Compound B perfused with references, Average ± STD
[5] = Table 4 Treatment 1: Compound B perfused with references, Rat 1
[6] = Table 4 Treatment 1: Compound B perfused with references, Rat 2
[7] = Table 4 Treatment 1: Compound B perfused with references, Rat 3
[8] = Table 4 Treatment 2: Compound B perfused with references + MAO inhibitor Pargyline, Average ± STD
[9] = Table 4 Treatment 2: Compound B perfused with references + MAO inhibitor Pargyline, Rat 1
[10] = Table 4 Treatment 2: Compound B perfused with references + MAO inhibitor Pargyline, Rat 2
[11] = Table 4 Treatment 2: Compound B perfused with references + MAO inhibitor Pargyline, Rat 3
[12] = Table 5 Treatment 1: Compound A perfused with references, Average ± STD
[13] = Table 5 Treatment 1: Compound A perfused with references, Rat 1
[14] = Table 5 Treatment 1: Compound A perfused with references, Rat 2
[15] = Table 5 Treatment 1: Compound A perfused with references, Rat 3
[16] = Table 5 Treatment 2: Compound A perfused with references + CYP2D6 inhibitor Quinidine, Average ± STD
[17] = Table 5 Treatment 2: Compound A perfused with references + CYP2D6 inhibitor Quinidine, Rat 1
[18] = Table 5 Treatment 2: Compound A perfused with references + CYP2D6 inhibitor Quinidine, Rat 2
[19] = Table 5 Treatment 2: Compound A perfused with references + CYP2D6 inhibitor Quinidine, Rat 3
[20] = Treatment 3: MAO substrate Phenylethylamine assayed with controls, Average ± STD
[21] = Treatment 3: MAO substrate Phenylethylamine assayed with controls, Rep 1
[22] = Treatment 3: MAO substrate Phenylethylamine assayed with controls, Rep 2
[23] = Treatment 3: MAO substrate Phenylethylamine assayed with controls, Rep 3
[24] = Treatment 4: Phenylethylamine assayed with controls + MAO inhibitor Pargyline, Average ± STD
[25] = Treatment 4: Phenylethylamine assayed with controls + MAO inhibitor Pargyline, Rep 1
[26] = Treatment 4: Phenylethylamine assayed with controls + MAO inhibitor Pargyline, Rep 2
[27] = Treatment 4: Phenylethylamine assayed with controls + MAO inhibitor Pargyline, Rep 3

Question: Which results are given for Cc1cc(=O)n(-c2ccccc2)n1C [Antipyrine, reference compound]?
Answer: Brain Concentration (corrected for drug retained in vascular volume) [1, 4]: 1083.1 ± 141.4 pmol/g; Kin [1, 4]: 0.342 ± 0.045 mL/g/min; Brain Concentration (corrected for drug retained in vascular volume) [1, 5]: 1123.1 pmol/g; Kin [1, 5]: 0.355 mL/g/min; Brain Concentration (corrected for drug retained in vascular volume) [1, 6]: 1200.2 pmol/g; Kin [1, 6]: 0.379 mL/g/min; Brain Concentration (corrected for drug retained in vascular volume) [1, 7]: 926.0 pmol/g; Kin [1, 7]: 0.292 mL/g/min; Brain Concentration (corrected for drug retained in vascular volume) [1, 8]: 888.5 ± 47.9 pmol/g; Kin [1, 8]: 0.300 ± 0.016 mL/g/min; Brain Concentration (corrected for drug retained in vascular volume) [1, 9]: 833.1 pmol/g; Kin [1, 9]: 0.282 mL/g/min; Brain Concentration (corrected for drug retained in vascular volume) [1, 10]: 914.3 pmol/g; Kin [1, 10]: 0.309 mL/g/min; Brain Concentration (corrected for drug retained in vascular volume) [1, 11]: 918.0 pmol/g; Kin [1, 11]: 0.310 mL/g/min; Brain Concentration (corrected for drug retained in vascular volume) [1, 12]: 1157.1 ± 239.3 pmol/g; Kin [1, 12]: 0.376 ± 0.078 mL/g/min; Brain Concentration (corrected for drug retained in vascular volume) [1, 13]: 1426.6 pmol/g; Kin [1, 13]: 0.463 mL/g/min; Brain Concentration (corrected for drug retained in vascular volume) [1, 14]: 1074.9 pmol/g; Kin [1, 14]: 0.349 mL/g/min; Brain Concentration (corrected for drug retained in vascular volume) [1, 15]: 969.7 pmol/g; Kin [1, 15]: 0.315 mL/g/min; Brain Concentration (corrected for drug retained in vascular volume) [1, 16]: 1124.7 ± 135.5 pmol/g; Kin [1, 16]: 0.386 ± 0.047 mL/g/min; Brain Concentration (corrected for drug retained in vascular volume) [1, 17]: 977.7 pmol/g; Kin [1, 17]: 0.336 mL/g/min; Brain Concentration (corrected for drug retained in vascular volume) [1, 18]: 1244.5 pmol/g; Kin [1, 18]: 0.427 mL/g/min; Brain Concentration (corrected for drug retained in vascular volume) [1, 19]: 1151.8 pmol/g; Kin [1, 19]: 0.395 mL/g/min

Question: Which Papp at 120 min [2, 20] does the source give for NCCc1ccccc1 [Phenylethylamine] here?
Answer: The Papp at 120 min was 18.94 ± 0.1 ×10⁻⁶ cm/s.

Question: And the Papp at 120 min [2, 21]?
Answer: Its Papp at 120 min is 18.8 ×10⁻⁶ cm/s.

Question: And the Papp at 120 min [2, 22]?
Answer: Its Papp at 120 min is 18.9 ×10⁻⁶ cm/s.

Question: And the Papp at 120 min [2, 23]?
Answer: The Papp at 120 min was 19 ×10⁻⁶ cm/s.

Question: What about the Papp at 120 min [2, 24] of the same molecule?
Answer: The Papp at 120 min was 35.2 ± 0.98 ×10⁻⁶ cm/s.

Question: And the Papp at 120 min [2, 25]?
Answer: The Papp at 120 min was 34.5 ×10⁻⁶ cm/s.

Question: What about the Papp at 120 min [2, 26] of the same molecule?
Answer: The Papp at 120 min was 36.3 ×10⁻⁶ cm/s.

Question: And the Papp at 120 min [2, 27]?
Answer: The Papp at 120 min was 34.7 ×10⁻⁶ cm/s.

Question: And the “Permeation (Papp) in the presence of the MAO inhibitor Pargyline compared to alone” value [3]?
Answer: Its value is “significant increased”.

Question: With Lucifer Yellow as the molecule, how does the Papp ([3]; Treatment 1: Compound B assayed with controls, Average ± STD) read?
Answer: The Papp was 14.40 ± 0.37 ×10^−6 cm/s.

Question: And the Papp ([3]; Treatment 1: Compound B assayed with controls, Rep 1)?
Answer: The Papp was 1.481e-05 cm/s.

Question: And the Papp ([3]; Treatment 1: Compound B assayed with controls, Rep 2)?
Answer: The Papp was 1.411e-05 cm/s.

Question: What about the Papp ([3]; Treatment 1: Compound B assayed with controls, Rep 3) of the same molecule?
Answer: Its Papp is 1.426e-05 cm/s.

Question: What about the Papp ([3]; Treatment 2: Compound B assayed with controls + MAO inhibitor Pargyline, Average ± STD) of the same molecule?
Answer: The Papp was 15.10 ± 0.11 ×10^−6 cm/s.

Question: And the Papp ([3]; Treatment 2: Compound B assayed with controls + MAO inhibitor Pargyline, Rep 1)?
Answer: Its Papp is 1.509e-05 cm/s.

Question: And the Papp ([3]; Treatment 2: Compound B assayed with controls + MAO inhibitor Pargyline, Rep 2)?
Answer: Its Papp is 1.5e-05 cm/s.

Question: What about the Papp ([3]; Treatment 2: Compound B assayed with controls + MAO inhibitor Pargyline, Rep 3) of the same molecule?
Answer: The Papp was 1.521e-05 cm/s.

Question: And the Papp [3, 20]?
Answer: Its Papp is 14.82 ± 0.88 ×10^−6 cm/s.

Question: And the Papp [3, 21]?
Answer: Its Papp is 1.561e-05 cm/s.

Question: What about the Papp [3, 22] of the same molecule?
Answer: Its Papp is 1.388e-05 cm/s.

Question: And the Papp [3, 23]?
Answer: Its Papp is 1.499e-05 cm/s.

Question: And the Papp [3, 24]?
Answer: The Papp was 13.76 ± 0.46 ×10^−6 cm/s.

Question: What about the Papp [3, 25] of the same molecule?
Answer: Its Papp is 1.327e-05 cm/s.

Question: What about the Papp [3, 26] of the same molecule?
Answer: The Papp was 1.382e-05 cm/s.

Question: What about the Papp [3, 27] of the same molecule?
Answer: Its Papp is 1.42e-05 cm/s.

Question: And the Papp ([3]; Treatment 5: Compound A assayed with controls, Average ± STD)?
Answer: The Papp was 14.56 ± 1.33 ×10^−6 cm/s.

Question: What about the Papp ([3]; Treatment 5: Compound A assayed with controls, Rep 1) of the same molecule?
Answer: The Papp was 1.491e-05 cm/s.

Question: And the Papp ([3]; Treatment 5: Compound A assayed with controls, Rep 2)?
Answer: The Papp was 1.309e-05 cm/s.

Question: And the Papp ([3]; Treatment 5: Compound A assayed with controls, Rep 3)?
Answer: The Papp was 1.568e-05 cm/s.

Question: What about the Papp ([3]; Treatment 7: CYP2D6 substrate Bufuralol assayed with controls, Average ± STD) of the same molecule?
Answer: The Papp was 13.88 ± 0.56 ×10^−6 cm/s.

Question: And the Papp ([3]; Treatment 7: CYP2D6 substrate Bufuralol assayed with controls, Rep 1)?
Answer: The Papp was 1.355e-05 cm/s.

Question: And the Papp ([3]; Treatment 7: CYP2D6 substrate Bufuralol assayed with controls, Rep 2)?
Answer: The Papp was 1.357e-05 cm/s.

Question: And the Papp ([3]; Treatment 7: CYP2D6 substrate Bufuralol assayed with controls, Rep 3)?
Answer: Its Papp is 1.452e-05 cm/s.
